Data reported in patent publication US12441693B2, “Targeting STAT sumoylation to enhance immune responses” (THE GEORGE WASHINGTON UNIVERSITY, priority 2018, dated 2025).

Assays:
Granzyme B, TRAIL = test: Expression of cytotoxic molecules (Gzm B, TRAIL) in CD8 and CD4 T cells; assay type: cell-based, human
STAT5 = biological target: T1, STAT5 (Homo sapiens, UniProt P42229); test: Cellular thermal shift assay (CETSA) in 293FT-STAT5A cell lysates; assay type: binding
T1 construct: expressed in transfected cells; host or cells: 293FT HEK cells expressing STAT5A (293FT-STAT5A)
T1 sequence (P42229 1-794): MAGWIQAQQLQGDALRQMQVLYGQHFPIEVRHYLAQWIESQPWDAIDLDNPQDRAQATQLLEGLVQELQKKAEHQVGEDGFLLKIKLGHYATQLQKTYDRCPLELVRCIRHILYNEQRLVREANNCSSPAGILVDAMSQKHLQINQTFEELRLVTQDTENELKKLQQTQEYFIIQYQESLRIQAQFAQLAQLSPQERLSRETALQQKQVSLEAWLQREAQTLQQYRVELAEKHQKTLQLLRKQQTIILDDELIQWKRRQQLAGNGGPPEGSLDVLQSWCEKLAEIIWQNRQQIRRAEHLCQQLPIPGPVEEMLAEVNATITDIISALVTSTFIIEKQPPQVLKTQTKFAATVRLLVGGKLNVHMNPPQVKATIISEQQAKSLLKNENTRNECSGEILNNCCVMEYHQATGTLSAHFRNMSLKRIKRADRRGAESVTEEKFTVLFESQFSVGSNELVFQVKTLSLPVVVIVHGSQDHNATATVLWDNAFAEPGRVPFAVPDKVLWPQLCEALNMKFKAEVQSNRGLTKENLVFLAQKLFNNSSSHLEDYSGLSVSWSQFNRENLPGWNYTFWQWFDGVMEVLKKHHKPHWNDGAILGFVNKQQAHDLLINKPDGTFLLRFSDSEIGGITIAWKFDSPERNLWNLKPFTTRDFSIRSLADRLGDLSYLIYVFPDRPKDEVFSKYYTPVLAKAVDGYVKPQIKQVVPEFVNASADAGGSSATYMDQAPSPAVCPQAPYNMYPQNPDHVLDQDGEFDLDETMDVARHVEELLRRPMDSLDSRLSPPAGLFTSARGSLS
Description: To evaluate whether HODHBt and its analogs were directly binding to STAT5, a recently developed assay, cellular thermal shift assay (CETSA), was used. CETSA is based on the biophysical principle of ligand-induced changes in thermal stability of target proteins. As detailed in Molina & Nordlund, ANNU RE[…]. 2016; 56:141-61, the disclosure of which is hereby incorporated by reference in its entirety, the CETSA assay has been extensively used to identify drug targets using lysates, cells and tissues (FIG. 7A). After heating at different temperatures, the soluble fractions are analyzed for changes in the levels of the target protein (FIG. 7B). Binding of the compound can change the temperature at which the protein is denaturalized (FIG. 7C) leading to a change in the thermal melting curve (FIG. 7D).
First, it was addressed whether HODHBt induced a thermal shift of STAT5 using cell lysates from 293FT-STAT5A. In this assay, high drug concentrations were used to perform CETSA in cell lysates (10,000-20,000 times the IC50). […] Briefly, cell lysates were incubated with either DMSO or HODHBt for 30 minutes at 25° C. After incubation, lysates were heated from 40° C. to 75° C. in 5 degrees intervals and the insoluble fractions were eliminated by centrifugation. […]

NK cells = test: In vitro expansion of NK cells with IL-2; assay type: cell-based, human; conditions: 500 IU/ml of IL-2, two HIV-negative donors
Description: As for CD8 T cells, STATS play an important role in the expansion of NK cells. As such, it was hypothesized that inhibiting STAT SUMOylation may enhance the expansion of NK cells. This has important implications for adoptive cell immunotherapies as NK cells are increasingly becoming an attractive alternative to T cell therapies. In order to address whether inhibiting STAT SUMOylation may enhance NK proliferation in vitro, NK cells were isolated from two human HIV-negative donors and expanded using Miltenyi Biotec NK MACS Medium in the presence of 500 IU/ml of IL-2 and in the presence or absence of HODHBt.

O=c1c2ccccc2nnn1O [HODHBt]
levels of Gzm B in CD8 T cells (Granzyme B, TRAIL): increased the levels of Gzm B in CD8 T cells
expression of Granzyme B in activated CD8 T cells (Granzyme B, TRAIL; cultured for three days): increased the levels of expression
expression of TRAIL in activated CD8 T cells (Granzyme B, TRAIL; cultured for three days): increased the levels of expression
high molecular band generated (size of STAT5 dimer) (STAT5; lysates incubated with HODHBt, Western blot): approximately 188 kDa
thermal melting curve of STAT5 (STAT5; lysates, 5 mM, 30 minutes at 25° C, heated 40-75° C): drastically changed the thermal melting curve of STAT5, promoting its degradation
NK cell expansion (NK cells): enhanced NK cell expansion in vitro
